Test results published in paper PMC8911025, “Design, Synthesis, and Biological Evaluation of New Azulene-Containing Chalcones” (Materials, 2022).
≈ marks a conversion by molar mass, not a printed value.

Tests used:
Type in all cases: cell-based
[1] = test system: Escherichia coli ATCC 25922; assay: MIC, binary serial dilution in 96-well plates; conditions: ATCC25922; Escherichia coli ATCC 25922, 24 h at 37 °C
Method: (§1) The antimicrobial activity of all compounds was assessed on Gram-positive bacteria (Staphylococcus aureus ATCC 25923), Gram-negative bacteria (Escherichia coli ATCC 25922, Pseudomonas aeruginosa ATCC 27853), and fungi (Candida parapsilosis ATCC 22019) using quantitative binary serial dilution method in 96-well plates. The negative control was represented by wells with culture medium, while positive control was the microbial strain in broth. Briefly, binary serial dilutions of the compounds performed in 100 μL of broth were seeded with microbial inoculum of 10^6 colony forming units (CFU)/mL and incubated for 24 h at 37 °C. […] Due to the fact that the obtained compounds were colored, after the incubation of the 96-well plates, from each well, 10 µL were seeded on agar plates (Plate Count Agar) to determine the inhibitory concentration. The same value of the inhibitory concentration was obtained in repeated experiments.
(§2) The antibacterial effect of the azulene moiety introduced in the chalcone structure was investigated against Gram-positive (Staphylococcus aureus ATCC 25923) and Gram-negative (Escherichia coli ATCC 25922, Pseudomonas aeruginosa ATCC 27853) bacteria, while the antifungal effect was tested against Candida parapsilosis ATCC 22019. To our knowledge, the antibacterial activity of azulene-containing chalcone compounds has not been reported previously; moreover, this is the first investigation of the biological properties of azulene-containing chalcones in general. The results expressed in terms of minimum inhibitory concentration (MIC) were determined by in vitro screening of the antimicrobial properties using the broth microdilution method and are summarized in Table 5.

[2] = test system: Pseudomonas aeruginosa ATCC 27853; assay: MIC, binary serial dilution in 96-well plates; conditions: ATCC27853; Pseudomonas aeruginosa ATCC 27853, 24 h at 37 °C
Method: as §1, §2

[3] = test system: Staphylococcus aureus ATCC 25923; assay: MIC, binary serial dilution in 96-well plates; conditions: for MIC: ATCC25923, Staphylococcus aureus ATCC 25923, 24 h at 37 °C; for Aexp: Aexp = 0.1 + log (k/MIC), k = 1.250, compounds synthesized herein
Method: as §1, §2

[4] = test system: Candida parapsilosis ATCC 22019; assay: MIC (antifungal), binary serial dilution in 96-well plates; conditions: Lodderomyces parapsilosis, ATCC22019; Candida parapsilosis ATCC 22019, 24 h at 37 °C
Method: as §1, §2
We further tested the azulene-containing chalcone compounds for antifungal activity against Candida parapsilosis ATCC 22019.

Candida parapsilosis = assay: Antibiofilm activity (crystal violet, A490); conditions: Lodderomyces parapsilosis, biofilm, read-out: MBEC
Method: (§3) The effect of the chalcones on the biofilm formation was evaluated after the determination of the MICs. Briefly, the plates were emptied, washed to remove the nonadherent cells, fixed with methanol, and stained with crystal violet. The antibiofilm activity was determined after adding 33% acetic acid solution by measuring the absorbance at 490 nm, and the results are listed in Table 6.
(§4) The azulene-chalcone derivatives were tested for their ability to affect biofilm formation since 80% of the world’s microbial biomass is found in the biofilm state. The most efficient compound was again chalcone 6 with MBEC of 0.156–0.625 mg/mL (Table 6).

Escherichia coli = assay: Antibiofilm activity (crystal violet, A490); conditions: biofilm, read-out: MBEC
Method: as §3, §4

Pseudomonas aeruginosa = assay: Antibiofilm activity (crystal violet, A490); conditions: biofilm, read-out: MBEC
Method: as §3, §4

Staphylococcus aureus = assay: Antibiofilm activity (crystal violet, A490); conditions: biofilm, read-out: MBEC
Method: as §3, §4

[5] = Cell viability assay (CellTiter Glo); conditions: human; HEp-2 cells, 48 h, CellTiter Glo; read-out: IC50 (50% cytotoxic concentration)
Method: (§5) To assess the toxicity of the azulene-containing chalcones, the adherent cell line HEp-2 (American Cell Type Collection [ATCC] CCL-23^TM) was used.
(§6) In order to estimate the cytotoxicity of the compounds, HEp-2 cells (American Cell Type Collection (ATCC) CCL-23) were exposed to the azulene-containing chalcones at concentrations of 200, 100, 50, and 25 μg/mL and evaluated using CellTiter Glo kit (Promega, Madison, WI, USA) assay. The results presented in Figure 3 are expressed as viability percentages versus control.

biofilm formation = assay: Antibiofilm activity, summary over the tested strains; conditions: range over the tested strains (Table 6)
Method: as §3, §4

HEp-2 cells [6] = assay: Cell viability assay (CellTiter Glo); conditions: 25-200 μg/mL
Method: as §5, §6

HEp-2 cells [7] = assay: Cell cycle analysis (propidium iodide, flow cytometry)
Method: For cell cycle analysis, a suspension of 7.5 × 10^4 HEp-2 cells was seeded for 24 h in a 1 cm^2 well in DMEM:F12 containing 10% fetal bovine serum. After recovery, the cells were treated with 50 µg/mL or 100 µg/mL azulene-containing chalcone, and 24 h later, the cells were harvested, fixed in cold ethanol overnight, and stained with RNase A/propidium iodide at a concentration of 1 mg/mL to 100 µg/mL. The events were recorded using the Beckman Coulter flow cytometer and analyzed using FlowJo 7.2.5 software.
The cytotoxicity data were also confirmed by cell cycle analysis. Among the tested compounds, chalcone 10 induced an increase in the G2/M phase starting from a concentration of 50 µg/mL (Supplementary Material Figure S2), the effect increasing slightly with the concentration of the tested compound. The increase in the G2/M phase was also observed in the case of compound 9, but at a higher concentration (100 µg/mL), but this effect was lower (Figure 4).

caspase 3 = assay: Gene expression quantification (qPCR); conditions: HEp-2, 100 µg/mL, 24 h
Method: (§7) The mechanism of azulene-containing chalcone toxicity was assessed by gene expression evaluation. HEp-2 cells were seeded in 6-well plates at a concentration of 3 × 10^5 cells/wells in DMEM:F12 supplemented with 10% FBS. The cells were treated with azulene-containing chalcone at a concentration of 100 µg/mL. After 24 h, the cells were harvested and centrifuged, and the pellet was subjected to total RNA extraction using Trizol reagent (Sigma, St. Louis, MO, USA). The cDNA was produced using 2 µg total RNA and High Capacity Reverse Transcription Kit (Thermo Fisher Scientific, Chelmsford, MA, USA). Fifty nanograms of cDNA was subjected to PCR reaction using Maxima SYBR Green/ROX qPCR Master Mix (Thermo Fisher Scientific, Chelmsford, MA, USA) and Origene primer pairs: caspase 3 (CAT#: HP207674) caspase 7 (CAT#: HP233752), caspase 8 (CAT#: HP234494), caspase 9 (CAT#: HP205155), caspase 10 (CAT#: HP228052). For NOX-4 and NOS2, the following primers were used: NOX 4 forward 5′-[…]-3 and reverse 5′-[…]-3′ and NOS2 forward 5′-[…]-3′ and reverse 5′-[…]-3′. Amplification was completed using StepOne Real-Time PCR System (Thermo Fisher Scientific, Chelmsford, MA, USA). The relative changes in the levels of mRNA expression were quantified by using the 2^−ΔΔCT method.
(§8) We observed that the expression of both executioner caspases, caspase 3 (Casp 3), and caspase 7 (Casp 7), was activated by azulene (Figure 5, right). The production of procaspase 3 and 7 mRNA in the case of compounds 9 and 10 was quite reduced, probably correlated with the decreased number of cells.

caspase 7 = assay: Gene expression quantification (qPCR); conditions: HEp-2, 100 µg/mL, 24 h
Method: as §7, §8

caspase 8 = assay: Gene expression quantification (qPCR); conditions: HEp-2, 100 µg/mL, 24 h
Method: as §7
(§9) Production of procaspase 8 mRNA was inhibited by 7, 9, and 10, with an important role in extrinsic apoptosis induction remaining for caspase 10. Cellular stress induces intrinsic apoptosis by caspase 9 activation that stimulates the caspase cascade, culminating in activation of executioner caspases 3 and 7 [42]. The mRNA expression of caspase 9 was activated following the treatment with 100 µg/mL of compounds 1–8 but inhibited by 9 and 10.

caspase 9 = assay: Gene expression quantification (qPCR); conditions: HEp-2, 100 µg/mL, 24 h
Method: as §7, §9

NOS2 = assay: Gene expression quantification (qPCR); conditions: HEp-2, 100 µg/mL, 24 h
Method: as §7
One of our approaches consisted of the analysis of NOS2 and NOX4 gene expression (Figure 6). […]

Structure (SMILES) | MIC [1] [µg/mL] | MIC [2] [µg/mL] | MIC [3] [µg/mL] | Aexp [3] | MIC [4] [µg/mL] | minimal effective concentration (Candida parapsilosis) [µg/mL] | minimal effective concentration (Escherichia coli) [µg/mL] | minimal effective concentration (Pseudomonas aeruginosa) [µg/mL] | minimal effective concentration (Staphylococcus aureus) [µg/mL] | IC50 at 48 h [5] [µg/mL] | MBEC (biofilm formation) [mg/mL] | cytotoxicity (HEp-2 cells [6]) | effect on G2/M phase (HEp-2 cells [7]; HEp-2, 100 µg/mL) | procaspase 3 mRNA expression (caspase 3) | procaspase 7 mRNA expression (caspase 7) | procaspase 8 mRNA production (caspase 8) | mRNA expression of caspase 9 (caspase 9) | NOS2 expression (NOS2) | effect on G2/M phase (HEp-2 cells [7]; HEp-2, starting from 50 µg/mL)
O=C(/C=C/c1ccc2cccccc1-2)c1ccc(O)cc1 [Compound 2, (E)-3-(Azulen-1-yl)-1-(4-hydroxyphenyl)prop-2-en-1-one] | 625 (≈ 2280 µM) | 625 (≈ 2280 µM) | 1250 (≈ 4560 µM) | 0.100 | 312 (≈ 1140 µM) | 312 | 625 | 625 | 1250 | 97.5 (≈ 355 µM) | – | – | – | – | – | – | – | – | –
Nc1ccc(C(=O)/C=C/c2ccc3cccccc2-3)cc1 [Compound 3, (E)-1-(4-Aminophenyl)-3-(azulen-1-yl)prop-2-en-1-one] | 625 (≈ 2290 µM) | 625 (≈ 2290 µM) | 1250 (≈ 4570 µM) | 0.100 | 312 (≈ 1140 µM) | 625 | 625 | 1250 | 2500 | 114 (≈ 415 µM) | – | – | – | – | – | – | – | – | –
O=C(/C=C/c1ccc2cccccc1-2)c1cccc2ccccc12 [Compound 4, (E)-3-(Azulen-1-yl)-1-(naphthalen-1-yl)prop-2-en-1-one] | 625 (≈ 2030 µM) | 625 (≈ 2030 µM) | 1250 (≈ 4050 µM) | 0.100 | 312 (≈ 1010 µM) | 625 | 625 | 625 | 1250 | 61.8 (≈ 200 µM) | – | – | – | – | – | – | – | – | –
O=C(/C=C/c1ccc2cccccc1-2)c1ccc2ccccc2c1 [Compound 5, (E)-3-(Azulen-1-yl)-1-(naphthalen-2-yl)prop-2-en-1-one] | 625 (≈ 2030 µM) | 625 (≈ 2030 µM) | 1250 (≈ 4050 µM) | 0.100 | 312 (≈ 1010 µM) | 625 | 625 | 1250 | 2500 | 102 (≈ 332 µM) | – | – | – | – | – | – | – | – | –
O=C(/C=C/c1ccc2cccccc1-2)c1ccc2cccccc1-2 [Compound 6, (E)-1,3-Di(azulen-1-yl)prop-2-en-1-one] | 625 (≈ 2030 µM) | 625 (≈ 2030 µM) | 625 (≈ 2030 µM) | 0.401 | 156 (≈ 506 µM) | 156 | 625 | 625 | 625 | 78.6 (≈ 255 µM) | 0.156 to 0.625 | low toxicity | – | – | – | – | – | – | –
O=C(/C=C/c1cc(Br)c2cccccc1-2)c1ccc2cccccc1-2 [Compound 8, (E)-1-(Azulen-1-yl)-3-(3-bromoazulen-1-yl)prop-2-en-1-one] | 625 (≈ 1610 µM) | 625 (≈ 1610 µM) | 1250 (≈ 3230 µM) | 0.100 | 312 (≈ 806 µM) | 312 | 625 | 1250 | 1250 | 93.5 (≈ 242 µM) | – | – | – | – | – | – | – | – | –
Cc1cc(/C=C/C(=O)c2ccc3cccccc2-3)c2cccccc1-2 [Compound 9, (E)-1-(Azulen-1-yl)-3-(3-methylazulen-1-yl)prop-2-en-1-one] | 625 (≈ 1940 µM) | 625 (≈ 1940 µM) | 1250 (≈ 3880 µM) | 0.100 | 312 (≈ 968 µM) | 312 | 625 | 625 | 625 | 52.5 (≈ 163 µM) | – | – | increase | quite reduced | quite reduced | inhibited | inhibited | reduced | –
Cc1cc(C(=O)/C=C/c2ccc3cccccc2-3)c2cccccc1-2 [Compound 10, (E)-3-(Azulen-1-yl)-1-(3-methylazulen-1-yl)prop-2-en-1-one] | 625 (≈ 1940 µM) | 625 (≈ 1940 µM) | 1250 (≈ 3880 µM) | 0.100 | 312 (≈ 968 µM) | 312 | 625 | 625 | 1250 | 4.95 (≈ 15.4 µM) | – | most toxic | – | quite reduced | quite reduced | inhibited | inhibited | – | increase
